From paper PMC6934681, “Small molecule allosteric uncoupling of microtubule depolymerase activity from motility in human Kinesin-5 during mitotic spindle assembly” (Scientific Reports, 2019)

Target: T1, Eg5 (human Kinesin-5) (Homo sapiens, UniProt P52732)
T1 construct: gene KIF11; motor domain (residues 1–369); with microtubules (bovine brain tubulin)
T1 sequence (P52732 1-369): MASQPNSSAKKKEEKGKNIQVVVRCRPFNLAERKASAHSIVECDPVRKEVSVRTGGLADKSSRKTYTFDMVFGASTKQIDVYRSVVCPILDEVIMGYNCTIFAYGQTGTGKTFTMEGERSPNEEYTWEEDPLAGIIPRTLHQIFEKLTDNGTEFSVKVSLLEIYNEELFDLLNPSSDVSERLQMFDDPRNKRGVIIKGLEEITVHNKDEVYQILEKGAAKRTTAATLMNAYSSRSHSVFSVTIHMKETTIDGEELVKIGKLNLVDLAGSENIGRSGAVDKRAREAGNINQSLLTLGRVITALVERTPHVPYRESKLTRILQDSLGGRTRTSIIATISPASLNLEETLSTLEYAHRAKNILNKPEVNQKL
Assay: microtubule depolymerization turbidity assay with purified Eg5 motor domain, single concentration […] AMPPNP
Format: biochemical

For `Nc1ncnc2c1ncn2[C@@H]1O[C@H](CO[P@](=O)(O)O[P@](=O)(O)NP(=O)(O)O)[C@@H](O)[C@H]1O` [AMP, AMPPNP], the “microtubule depolymerization turbidity assay with purified Eg5 motor domain, sin” value was “treatment with excess orthosteric inhibitor, AMPPNP, completely inhibited its microtubule depolymerization ability”.
